The values below come from patent US20100093993A1 (priority 2007, published 2010).

The test system of test [1] is intraperitoneal macrophage cells of a mouse. Nature of the test: Measurement of macrophage activity: nitrite ion concentration (NO release, Griess reagent). It counts as cell-based. Conditions: test compound 50 μM; for Nitrite Ion Concentration Relative Value: relative to TDCM = 1.0, 48 hours; for Nitrite Ion Concentration Actual Value: cultured 48 hours, mouse peritoneal macrophages, mean ± S.E. The protocol:
Macrophage activation indicates the condition wherein the adhesion to the tissue and the motility of the macrophages are improved, so that bacteria entering from outside or denatured self-components are phagocytized. Macrophage activity can be measured using the release of cytokine or active oxygen as an index. In Experimental Example 1 below, the macrophage activation ability was measured using the nitrite ion concentration as an index.
The present experiment was conducted with reference to the method described in Sakurai T., Kaise T., Matsubara C. Chem. Res. Toxicol. 1998, 11, 273-283. Specifically, ICR male mice (6 to 7 weeks old) were anesthetized, a phosphate buffer containing 0.05% EDTA was injected intraperitoneally, an intraperitoneal lavage was performed, and a peritoneal macrophage was aseptically recovered. After the cells were washed with an RPMI-1640 medium (containing 10% bovine fetal serum), the macrophage cells were inoculated so that there were 1×10^5 cells/100 μl in each well of the 96-well plate. After being pre-incubated for 2 hours, the test compound (50 μM) was added to the culture medium, and cultured for 48 hours. Afterwards, a Griess test reagent was added to the culture medium, which was allowed to stand for 10 minutes; the absorbency thereof was measured with a microplate reader (filter: 550/630 nm), after which the nitrite ion concentration (NO2^−) was determined from a calibration curve. The reproducibility of the above-described test was confirmed by 3 wells, the experiment was repeated at least three times using different mice, and the mean values ±S.E. were determined.
Background: Griess reagent forms a coloured azo dye with nitrite.

The subject of test [2] is rabbit neutrophil. The test is described as follows: Influence on the phagocytic action of neutrophils (opsonized ampicillin resistant E. coli, colony count). The settings on record: neutrophils treated 1 hour, then opsonized E. coli 1 hour.
In test [3] the test system is rabbit neutrophil. The test is described as follows: Influence on rabbit neutrophil H2O2 production (H2DCFDA fluorescence). Format: cell-based. Conditions: 2 hours at 37° C., rabbit neutrophils. The protocol:
The neutrophils (1.0×10^5 cells/100 μl) were inoculated in a 96-well plate (Falcon).

Test [4] relates to Clostridium perfringens (Type A NTCT8237). It counts as in vivo, ICR mice. The settings on record: emulsion solution 100 mg/mouse, 3 hours before C. perfringens 2.4×10^7 cells/mouse.

As to `CCCCCCCCCCCCCCCC(CCCCCCCCCCCCCCC)C(=O)NCC1O[C@H](O[C@H]2OC(CNC(=O)C(CCCCCCCCCCCCCCC)CCCCCCCCCCCCCCC)[C@@H](O)C(O)C2O)C(O)C(O)[C@@H]1O` (stereo partly drawn) [Ex. 6, 6,6′-bis-N-(2-pentadecylheptadecanoylamino)-6,6′-dideoxy-α,α′-trehalose], the “Nitrite Ion Concentration Relative Value” in test [1] was determined as 1.7. In addition, the “Nitrite Ion Concentration Actual Value” in test [1] is listed as 851 ± 608 nM. Besides, the results for the “The number of colonies” value in the test on rabbit neutrophil [2] (50 μM) and with rabbit neutrophil [2] (100 μM) were 120 ± 11 and 220 ± 12, respectively. Moreover, the figures for the H2O2 production in the test on rabbit neutrophil [3] (50 μM) and with rabbit neutrophil [3] (100 μM) were 0.11 ± 0.03 nmol/10^5 Cells and 0.16 ± 0.03 nmol/10^5 Cells, respectively.

With `CCCCCCCCCCCCC(CCCCCCCCCCCC)C(=O)NCC1O[C@H](O[C@H]2OC(CNC(=O)C(CCCCCCCCCCCC)CCCCCCCCCCCC)[C@@H](O)C(O)C2O)C(O)C(O)[C@@H]1O` (stereo partly drawn) [Ex. 3, 6,6′-bis-N-(2-dodecyltetradecanoylamino)-6,6′-dideoxy-α,α′-trehalose], in test [1], the “Nitrite Ion Concentration Relative Value” came out at 2.4. In test [1], the “Nitrite Ion Concentration Actual Value” was 1202 ± 647 nM. The “The number of colonies” value came out at 58 ± 9 with rabbit neutrophil [2] (50 μM) and 112 ± 15 in the test on rabbit neutrophil [2] (100 μM). Also, the H2O2 production with rabbit neutrophil [3] (50 μM) is on record as 0.18 ± 0.03 nmol/10^5 Cells; with rabbit neutrophil [3] (100 μM), 0.20 ± 0.03 nmol/10^5 Cells.

In the case of `CCCCCCCCCCCCCCC(CCCCCCCCCCCCCC)C(=O)NCC1O[C@H](O[C@H]2OC(CNC(=O)C(CCCCCCCCCCCCCC)CCCCCCCCCCCCCC)[C@@H](O)C(O)C2O)C(O)C(O)[C@@H]1O` (stereo partly drawn) [Ex. 5, 6,6′-bis-N-(2-tetradecylhexadecanoylamino)-6,6′-dideoxy-α,α′-trehalose], in test [1], the “Nitrite Ion Concentration Relative Value” turned out to be 8.8 and the “Nitrite Ion Concentration Actual Value” came to 4419 ± 4250 nM. Also, in the test on rabbit neutrophil [2] (50 μM), the “The number of colonies” value amounted to 250 ± 16. The “The number of colonies” value in the test on rabbit neutrophil [2] (100 μM) worked out at 450 ± 31. Moreover, in test [4], the “The number surviving/Administered group After 2 hr” value is 4/4, the “The number surviving/Administered group After 6 hr” value is reported as 4/4, the “The number surviving/Administered group After 12 hr” value is on record as 4/4 and the “The number surviving/Administered group After 24 hr” value is 4/4. Moreover, the “The number surviving/Administered group after 48 hr” value in test [4] was 4/4. This molecule also displayed an H2O2 production with rabbit neutrophil [3] (50 μM) of 0.26 ± 0.04 nmol/10^5 Cells. In the test on rabbit neutrophil [3] (100 μM), this molecule yielded an H2O2 production of 0.29 ± 0.04 nmol/10^5 Cells.

For the molecule `CCCCCCCCCCCCCC(CCCCCCCCCCCCC)C(=O)NCC1O[C@H](O[C@H]2OC(CNC(=O)C(CCCCCCCCCCCCC)CCCCCCCCCCCCC)[C@@H](O)C(O)C2O)C(O)C(O)[C@@H]1O` (stereo partly drawn) [Ex. 4, 6,6′-bis-N-(2-tridecylpentadecanoylamino)-6,6′-dideoxy-α,α′-trehalose], in test [1], the “Nitrite Ion Concentration Relative Value” came to 7.6 and the “Nitrite Ion Concentration Actual Value” is listed as 3676 ± 385 nM. In addition, in the test on rabbit neutrophil [2] (50 μM), the “The number of colonies” value was determined as 200 ± 15. In addition, the “The number of colonies” value with rabbit neutrophil [2] (100 μM) was 350 ± 30. For the same molecule, in test [4], the “The number surviving/Administered group After 2 hr” value is on record as 4/4, the “The number surviving/Administered group After 6 hr” value is on record as 4/4, the “The number surviving/Administered group After 12 hr” value is 4/4 and the “The number surviving/Administered group After 24 hr” value is recorded as 4/4. For the same molecule, in test [4], the “The number surviving/Administered group after 48 hr” value is listed as 4/4. Further, the H2O2 production in the test on rabbit neutrophil [3] (50 μM) is listed as 0.15 ± 0.02 nmol/10^5 Cells. Moreover, the H2O2 production in the test on rabbit neutrophil [3] (100 μM) was 0.18 ± 0.02 nmol/10^5 Cells.

As for `CCCCCCCCCCCCCCCCC(CCCCCCCCCCCCCCCC)C(=O)NCC1O[C@H](O[C@H]2OC(CNC(=O)C(CCCCCCCCCCCCCCCC)CCCCCCCCCCCCCCCC)[C@@H](O)C(O)C2O)C(O)C(O)[C@@H]1O` (stereo partly drawn) [Ex. 7, 6,6′-bis-N-(2-hexadecyloctadecanoylamino)-6,6′-dideoxy-α,α′-trehalose], the “Nitrite Ion Concentration Relative Value” in test [1] is reported as 0.6. The “Nitrite Ion Concentration Actual Value” in test [1] worked out at 300 ± 229 nM. The “The number of colonies” value in the test on rabbit neutrophil [2] (50 μM) came to 110 ± 7; with rabbit neutrophil [2] (100 μM), 200 ± 8. Moreover, the values for the H2O2 production with rabbit neutrophil [3] (50 μM) and with rabbit neutrophil [3] (100 μM) were 0.10 ± 0.03 nmol/10^5 Cells and 0.15 ± 0.02 nmol/10^5 Cells, respectively.

Take `CCCCCCCCCCCCCCC[C@@H](O)[C@@H](CCCCCCCCCCCCCC)C(=O)OCC1O[C@H](O[C@H]2OC(COC(=O)[C@H](CCCCCCCCCCCCCC)[C@H](O)CCCCCCCCCCCCCCC)[C@@H](O)[C@H](O)C2O)C(O)[C@@H](O)[C@@H]1O` (some centres unmarked) [TDCM, trehalose 6,6′-dicorynomycolate, reference compound]: in test [1], the “Nitrite Ion Concentration Relative Value” stood at 1.0 and the “Nitrite Ion Concentration Actual Value” is 500 ± 271 nM. The “The number of colonies” value in the test with rabbit neutrophil [2] (50 μM) was found to be 50 ± 10. The “The number of colonies” value with rabbit neutrophil [2] (100 μM) is 87 ± 10. For the same molecule, in test [4], the “The number surviving/Administered group After 2 hr” value was 4/4, the “The number surviving/Administered group After 6 hr” value is listed as 4/4, the “The number surviving/Administered group After 12 hr” value was 4/4 and the “The number surviving/Administered group After 24 hr” value is given as 4/4. Besides, the “The number surviving/Administered group after 48 hr” value in test [4] is listed as 4/4. Moreover, the H2O2 production with rabbit neutrophil [3] (50 μM) is 0.18 ± 0.02 nmol/10^5 Cells. The H2O2 production in the test on rabbit neutrophil [3] (100 μM) amounted to 0.21 ± 0.02 nmol/10^5 Cells.

As to `CCCCCCCCCCCC(CCCCCCCCCCC)C(=O)NCC1O[C@H](O[C@H]2OC(CNC(=O)C(CCCCCCCCCCC)CCCCCCCCCCC)[C@@H](O)C(O)C2O)C(O)C(O)[C@@H]1O` (stereo partly drawn) [Ex. 2, 6,6′-bis-N-(2-undecyltridecanoylamino)-6,6′-dideoxy-α,α′-trehalose], the “Nitrite Ion Concentration Relative Value” in test [1] is 3.9. The “Nitrite Ion Concentration Actual Value” in test [1] amounted to 1973 ± 973 nM. The “The number of colonies” value with rabbit neutrophil [2] (50 μM) is listed as 89 ± 21; in the test on rabbit neutrophil [2] (100 μM), 172 ± 13. The H2O2 production came to 0.25 ± 0.02 nmol/10^5 Cells with rabbit neutrophil [3] (50 μM) and 0.26 ± 0.02 nmol/10^5 Cells in the test on rabbit neutrophil [3] (100 μM).

For the molecule `CCCCCCCCCCC(CCCCCCCCCC)C(=O)NCC1O[C@H](O[C@H]2OC(CNC(=O)C(CCCCCCCCCC)CCCCCCCCCC)[C@@H](O)C(O)C2O)C(O)C(O)[C@@H]1O` (stereo partly drawn) [Ex. 1, 6,6′-bis-N-(2-decyldodecanoylamino)-6,6′-dideoxy-α,α′-trehalose], in test [1], the “Nitrite Ion Concentration Relative Value” stood at 0.4 and the “Nitrite Ion Concentration Actual Value” is listed as 200 ± 133 nM. In addition, the “The number of colonies” value in the test on rabbit neutrophil [2] (50 μM) came out at 250 ± 11. Moreover, the “The number of colonies” value with rabbit neutrophil [2] (100 μM) stood at 487 ± 20. Also, in test [4], the “The number surviving/Administered group After 2 hr” value is recorded as 4/4, the “The number surviving/Administered group After 6 hr” value was 4/4, the “The number surviving/Administered group After 12 hr” value is 4/4 and the “The number surviving/Administered group After 24 hr” value is 4/4. Further, the “The number surviving/Administered group after 48 hr” value in test [4] was 4/4. The H2O2 production with rabbit neutrophil [3] (50 μM) stood at 0.33 ± 0.05 nmol/10^5 Cells. The same molecule had an H2O2 production in the test on rabbit neutrophil [3] (100 μM) of 0.38 ± 0.05 nmol/10^5 Cells.
